From ChEMBL document CHEMBL1201862, “PubChem BioAssay data set” (2004)
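Compound exposure: 48 hours, 5 concentrations, 96-well plates. At the GI50, growth is halved.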 Calls of active or inactive are those of the source. No stated cut-off is given here; in the data, active = GI50 up to about 1.1 µM and inactive = higher.

Columns and labels:
Test in all cases: growth of human tumour cells (NCI), 48 h
[1] = system: SR
[2] = system: NCI-H522
[3] = system: CCRF-CEM
[4] = system: K562
[5] = system: EKVX
[6] = system: RXF 393
[7] = system: NCI-H460
[8] = system: SF-539
[9] = system: UO-31
[10] = system: T47D
[11] = system: HCT-116
[12] = system: M14
[13] = system: A549
[14] = system: MDA-MB-231
[15] = system: OVCAR-4

Measured: GI50

CC1CN=C(Nc2ccc(F)c(Cl)c2)S1 (stereo unspecified)
inactive: [1] 31.5 µM | [2] 58.2 µM | [3] 29.7 µM | [4] 62.1 µM | [5] 43.2 µM | [6] 37.6 µM | [7] > 100 µM | [8] > 100 µM | [9] 29.8 µM | [10] 88.9 µM | [11] 71 µM | [12] > 100 µM | [13] 88.9 µM | [14] > 100 µM

NC1CNC(=O)c2c(Cl)sc(Cl)c21 (stereo unspecified)
inactive: [1] 41.4 µM | [3] > 10 µM | [4] > 100 µM | [5] > 100 µM | [6] > 100 µM | [7] > 100 µM | [8] > 100 µM | [9] > 100 µM | [10] > 100 µM | [15] > 100 µM | [11] > 100 µM | [12] > 100 µM | [13] > 100 µM | [14] > 100 µM

COc1cc(/C=C2\N=C(c3ccccc3)N(c3ccc(S(=O)(=O)Nc4nccs4)cc3)C2=O)ccc1O
inactive: [1] 59.7 µM | [2] 50.4 µM | [3] 70.5 µM | [4] 55.8 µM | [5] 63.8 µM | [6] 62.2 µM | [7] > 100 µM | [8] 79.4 µM | [9] > 100 µM | [10] 85.5 µM | [15] > 100 µM | [11] 70.3 µM | [12] > 100 µM | [13] > 100 µM

CCCCNC(=O)Nc1c(C(N)=O)c2n(c1C(=O)OCC)CCCCC2
inactive: [1] 75.9 µM | [3] > 100 µM | [4] > 100 µM | [5] > 100 µM | [6] > 100 µM | [7] > 100 µM | [8] > 100 µM | [9] > 100 µM | [10] > 100 µM | [15] > 100 µM | [11] > 100 µM | [12] > 100 µM | [14] 21.3 µM

O=S1(=O)OCCOS(=O)(=O)C1C1c2ccccc2-c2ccccc21
inactive: [2] 20.7 µM | [3] 16.4 µM | [4] 31.3 µM | [5] 42.8 µM | [6] 50.9 µM | [7] 11.4 µM | [8] 22.8 µM | [9] 28.7 µM | [10] 93.8 µM | [15] 23 µM | [11] 28.6 µM | [12] 38.3 µM | [13] 40.8 µM | [14] > 100 µM

CC(C)C(=O)OCC1OC(n2c(Br)nc3c(=O)[nH]c(N)nc32)C(OC(=O)C(C)C)C1OC(=O)C(C)C (stereo unspecified)
inactive: [1] 38 µM | [2] 35.2 µM | [5] > 100 µM | [7] 23.7 µM | [9] > 100 µM | [10] 54.8 µM | [11] 30.1 µM | [12] > 100 µM | [13] 35.6 µM | [14] > 100 µM

Cn1c2c(c3ccccc31)CC(=O)N1CCCC(C1)CC21OCCO1 (stereo unspecified)
inactive: [1] > 100 µM | [3] > 100 µM | [4] > 100 µM | [5] > 100 µM | [6] 13.6 µM | [7] > 100 µM | [9] > 100 µM | [10] > 100 µM | [15] > 100 µM | [11] 41.7 µM | [12] > 100 µM | [13] > 100 µM | [14] > 100 µM

Brc1cccc(C2(CCCC3(c4cccc(Br)n4)OCCO3)OCCO2)n1
inactive: [2] 36.6 µM | [4] > 100 µM | [5] > 100 µM | [6] 72.4 µM | [7] > 100 µM | [8] 39.2 µM | [9] > 100 µM | [10] > 100 µM | [15] > 100 µM | [11] > 100 µM | [12] > 100 µM | [13] > 100 µM | [14] > 100 µM

COC(=O)c1c(C)[nH]c2c1cc(O)c1nc(C)c(C)nc12
inactive: [1] > 100 µM | [2] 74.8 µM | [3] > 100 µM | [4] > 100 µM | [5] > 100 µM | [6] 28 µM | [7] > 100 µM | [8] 34.3 µM | [9] > 100 µM | [10] 47.3 µM | [15] > 100 µM | [11] 42.2 µM | [12] > 100 µM | [13] > 100 µM

OCC1OC(n2nc(-c3ccccc3)nc2-c2cnccn2)C(O)C(O)C1O (stereo unspecified)
inactive: [2] > 100 µM | [3] > 100 µM | [4] > 100 µM | [7] > 100 µM | [8] > 100 µM | [9] > 100 µM | [10] > 100 µM | [15] > 100 µM | [11] > 100 µM | [12] > 100 µM | [13] > 100 µM | [14] > 100 µM
